# Test results taken from patent US8063053B2, “1-(arylsulfonyl)-4-(piperazin-1-yl)-1H-benzimidazoles as 5-hydroxytryptamine-6 ligands” (Wyeth LLC, priority 2008, dated 2011).
# Read-outs that look alike come from different tables or passages of the source.
# Biological target: T1, serotonin 5-HT6 receptor subtype (Homo sapiens, UniProt P50406)
# T1 construct: host or cells: CHO-Dukx-A2 cells, clone 50-7
# Test: 5-HT6 binding affinity ([3H]-LSD SPA binding)
# T1 sequence (P50406 whole entry): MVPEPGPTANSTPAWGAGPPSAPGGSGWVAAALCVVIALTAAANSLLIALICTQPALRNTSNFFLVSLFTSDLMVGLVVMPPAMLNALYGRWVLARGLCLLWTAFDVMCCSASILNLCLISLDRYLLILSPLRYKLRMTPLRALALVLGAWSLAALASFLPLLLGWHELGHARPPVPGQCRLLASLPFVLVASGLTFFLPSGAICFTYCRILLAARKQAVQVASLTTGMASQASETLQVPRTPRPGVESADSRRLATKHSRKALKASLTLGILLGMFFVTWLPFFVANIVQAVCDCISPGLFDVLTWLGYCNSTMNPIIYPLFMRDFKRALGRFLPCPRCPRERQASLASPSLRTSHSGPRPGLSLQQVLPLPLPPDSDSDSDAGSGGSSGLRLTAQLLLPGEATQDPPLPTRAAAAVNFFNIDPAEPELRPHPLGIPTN
SMILES,Ki (read-out: 5-HT6 binding Ki),Ki
"Cc1ccc(S(=O)(=O)n2cnc3c(N4CCNCC4)cccc32)c2ccccc12 [Example 35, 1-[(4-methyl-1-naphthyl)sulfonyl]-4-piperazin-1-yl-1H-benzimidazole]",1.1 nM,
"CC(C)C1CN(c2cccc3c2ncn3S(=O)(=O)c2ccccc2)CCN1 (centres unmarked) [Example 120, 4-(3-isopropylpiperazin-1-yl)-1-(phenylsulfonyl)-1H-benzimidazole]",6.11 nM,
"CCCCc1nc2c(N3CCNCC3)cccc2n1S(=O)(=O)c1ccccc1 [Example 8, 2-butyl-1-(phenylsulfonyl)-4-piperazin-1-yl-1H-benzimidazole]",1.1 nM,
"Cc1nc2c(N3CCNC(C)C3)cccc2n1S(=O)(=O)c1ccccc1Cl (centres unmarked) [Example 93, 1-[(2-chlorophenyl)sulfonyl]-2-methyl-4-(3-methylpiperazin-1-yl)-1H-benzimidazole]",0.488 nM,
"Cc1nc2c(N3C[C@@H]4C[C@H]3CN4)cccc2n1S(=O)(=O)c1cccc2ccccc12 [Example 110, 4-[(1S,4S)-2,5-diazabicyclo[2.2.1]hept-2-yl]-2-methyl-1-(naphthalen-1-ylsulfonyl)-1H-benzimidazole]",9.92 nM,
"CC1CN(c2cccc3c2ncn3S(=O)(=O)c2ccccc2OC(F)(F)F)CCN1 (centres unmarked) [Example 57, 4-(3-methylpiperazin-1-yl)-1-{[2-(trifluoromethoxy)phenyl]sulfonyl}-1H-benzimidazole]",2.09 nM,
"O=S(=O)(c1ccc2ccccc2c1)n1cnc2c(N3CCNCC3)cccc21 [Example 23, 1-(2-naphthylsulfonyl)-4-piperazin-1-yl-1H-benzimidazole]",10.6 nM,
"Cc1c(Cl)cccc1S(=O)(=O)n1c(C)nc2c(N3CCNC(C)C3)cccc21 (centres unmarked) [Example 95, 1-[(3-chloro-2-methylphenyl)sulfonyl]-2-methyl-4-(3-methylpiperazin-1-yl)-1H-benzimidazole]",0.394 nM,
"O=S(=O)(c1ccccc1)n1cnc2c(N3CCNCC3)cccc21 [Example 3, 1-(phenylsulfonyl)-4-(piperazin-1-yl)-1H-benzo[d]imidazole]",,1.36 nM
"O=S(=O)(c1ccccc1)n1cnc2c(N3CCNCC3)cc(F)cc21 [Example 103, 6-fluoro-1-(phenylsulfonyl)-4-piperazin-1-yl-1H-benzimidazole]",0.738 nM,
"CC(C)C1CN(c2cccc3c2ncn3S(=O)(=O)c2ccccc2Cl)CCN1 (centres unmarked) [Example 122, 1-[(2-chlorophenyl)sulfonyl]-4-(3-isopropylpiperazin-1-yl)-1H-benzimidazole]",1.08 nM,
"CC1CN(c2cccc3c2ncn3S(=O)(=O)c2cccc(Cl)c2)CCN1 (centres unmarked) [Example 54, 1-[(3-chlorophenyl)sulfonyl]-4-(3-methylpiperazin-1-yl)-1H-benzimidazole]",1.92 nM,
"CN1CCN(c2cccc3c2ncn3S(=O)(=O)c2ccccc2)CC1 [Example 12, 4-(4-methylpiperazin-1-yl)-1-(phenylsulfonyl)-1H-benzimidazole]",1.66 nM,
"COc1ccc(OC)c(S(=O)(=O)n2cnc3c(N4CCNCC4)cccc32)c1 [Example 67, 1-[(2,5-dimethoxyphenyl)sulfonyl]-4-piperazin-1-yl-1H-benzimidazole]",2.13 nM,
"Cc1c(Cl)cccc1S(=O)(=O)n1c(C)nc2c(N3C[C@@H](C)N[C@@H](C)C3)cccc21 [Example 100, 1-[(3-chloro-2-methylphenyl)sulfonyl]-4-[(3R,5S)-3,5-dimethylpiperazin-1-yl]-2-methyl-1H-benzimidazole]",2.28 nM,
"COc1ccccc1S(=O)(=O)n1cnc2c(N3CCNC(C)C3)cccc21 (centres unmarked) [Example 56, 1-[(2-methoxyphenyl)sulfonyl]-4-(3-methylpiperazin-1-yl)-1H-benzimidazole]",2.35 nM,
"Cc1cccc(S(=O)(=O)n2cnc3c(N4CCNCC4)cccc32)c1 [Example 36, 1-[(3-methylphenyl)sulfonyl]-4-piperazin-1-yl-1H-benzimidazole]",1.11 nM,
